Measured values reported in PubChem BioAssay AID2060609 (Molecular Pharmacology Branch, DTP, NCI, 2025).
Where “and” joins values, the source holds several entries; their conditions need not be identical. Equal values may be shown once.

Tested on: 855422-203-R-J1-PDC complex spheroids, viability
Experiment: Anticancer human tumor 855422-203-R-J1-PDC patient-derived bladder carcinoma cell line growth inhibition [CLK]
Details: for viability, T/C: stronger effect = lower value; for IC50: curve of compound
Excerpt: A high-throughput screen of multi-cell type tumor spheroids was designed to identify active combinations of […] and targeted small molecules. Complex spheroids include a stromal component modeled by human endothelial cells (HUVEC) and fibroblasts modeled by human mesenchymal stem cells (MSCs). The concentration ranges selected for each drug and investigational agent were based upon clinically achievable concentrations if the clinical Cmax of the agent was known.
Compounds. The drugs and investigational agents: cirtuvivint (SM08502; NSC835563), CC-671 (NSC850746), vemurafenib (NSC761431), tapotoclax (NSC804041), sotorasib (NSC818433), adagrasib (NSC831453), MRTX-1133 (NSC836407), BAY2416964 (NSC825713), copanlisib (NSC816437), inavolisib (NSC800729), abemaciclib (NSC768073), osimertinib (NSC779217), entinostat (NSC756642), eltanexor (KPT-8602, NSC794443), venetoclax (NSC766270), ceralasertib (NSC777638), bortezomib (NSC756655), olaparib (NSC753686), talazoparib (NSC767125), alisertib (NSC759677), peposertib (NSC802822), gemcitabine (NSC613327), 5-fluorouracil (NSC19893), SN-38 (NSC673596), oxaliplatin (NSC266046), paclitaxel (NSC125973), and doxorubicin (NSC123127), were obtained from the National Cancer Institute (NCI) Developmental Therapeutics Program Chemical Repository. The FDA-approved anticancer drug set is available from the Developmental Therapeutics Program at https://dtp.cancer.gov/organization/dscb/obtaining/available plates.htm. […] The stock solutions were prepared in dimethyl sulfoxide (DMSO, Sigma-Aldrich, St. Louis, MO, cat. D2650), except for the platinum complexes which were prepared in saline (Quality Biological, Gaithersburg, MD, cat. 114-055-101), at 800-fold the tested concentration and stored at -70 degrees C prior to their use. All drugs and investigational agents were tested over a range starting from a high concentration at or near the clinical Cmax and decreasing in half-log increments. If the clinical Cmax for an agent had not been determined, the highest concentration tested was 10 microM.
Cell Culture. All cells were maintained in an incubator at 37 degrees C and 5% CO2 with 95% humidity. The PDC lines were cultured according to standard operating procedures established by the NCI PDMR. Briefly, all PDCs were thawed and cultured in Matrigel-coated flasks prepared with a working solution of 1X Ham's F-12 nutrient mix, without supplementation (Invitrogen, Waltham, MA, cat. 11765054), 100 U/mL penicillin-streptomycin (Invitrogen, cat. 15140122), and 2.5% Matrigel (Corning Inc., Corning, NY, cat. 354248) for the first three passages. The 947758-054-R-J2-PDC line was cultured in 6B/Colon 1A media, which includes advanced DMEM/F-12 (Thermo Fisher Scientific, cat. 12634028), 10 mM HEPES (Thermo Fisher Scientific, cat. 15630080), 1X GlutaMAX supplement (Thermo Fisher Scientific, cat. 35050061), 0.1 mg/mL primocin (InvivoGen, cat. ant-pm-2), 10% defined fetal bovine serum, heat inactivated (HyClone Laboratories Inc., cat. SH30070.03HI), 1.25 mM N-Acetyl-L-cysteine (Sigma-Aldrich, cat. A9165), 10 mM nicotinamide (Sigma-Aldrich, cat. N0636), 1X B-27 supplement (Thermo Fisher Scientific, cat. 17504044), 1X N-2 supplement (Thermo Fisher Scientific, cat. 17502048), and 10 microM Y-27632 dihydrochloride (Tocris Bioscience, cat. 1254). The 876862-298-R-J1-PDC was cultured in 6E media, which includes all 6B/Colon 1A media components plus 50% L-WRN conditioned media (ATCC, cat. CRL-3276), 50 ng/mL recombinant human EGF recombinant protein (hEGF; Thermo Fisher Scientific, cat. PHG0311), 10 ng/mL recombinant human fibroblast growth factor 10 (hGFG-10; PeproTech, cat. 100-26), 1 ng/mL recombinant human fibroblast growth factor 2 (hFGF-2; PeproTech, cat. 100-18B), and 1 µM prostaglandin E2 (PGE2; Tocris, cat. 2296). The 227483-062-R1-J1-PDC line was cultured in Panc media, containing all 6E components except hFGF-2, with the addition of 500 nM SB-431542 (Selleckchem, cat. S1067) and 10 nM gastrin (Tocris, cat. 3006). […]
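Further: spheroids exposed to drugs for seven days before readout.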
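Wherever viability, T/C is given: 100% = DMSO vehicle control wells.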

IC50 | SMILES | viability, T/C (compound 0.0316 µM) | viability, T/C (compound 0.1 µM) | viability, T/C (compound 0.316 µM) | viability, T/C (compound 1 µM) | viability, T/C (compound 3.16 µM) | viability, T/C (compound 10 µM) | viability, T/C (compound 0.000949 µM) | viability, T/C (compound 0.003 µM) | viability, T/C (compound 0.00949 µM) | viability, T/C (compound 0.03 µM) | viability, T/C (compound 0.0949 µM) | viability, T/C (compound 0.3 µM) | viability, T/C (compound 0.00316 µM) | viability, T/C (compound 0.01 µM) | viability, T/C (compound 0.000316 µM) | viability, T/C (compound 0.001 µM) | viability, T/C (compound 0.949 µM) | viability, T/C (compound 3 µM)
> 10000 nM | C#Cc1c(F)ccc2cc(O)cc(-c3ncc4c(N5CC6CCC(C5)N6)nc(OCC56CCCN5CC(F)C6)nc4c3F)c12 (centres undefined) | 118% and 106% | 92.7% and 95.3% | 117% and 113% | 114% and 97.7% | 119% and 104% | 98.7% and 112% | – | – | – | – | – | – | – | – | – | – | – | –
1940 nM and 2340 nM | C=C(F)C(=O)N1CCN(c2nc(OCC3CCCN3C)nc3c2CCN(c2cccc4cccc(Cl)c24)C3)CC1CC#N (centres undefined) | 94.2% and 121% | 111% and 115% | 93.3% and 113% | 111% and 123% | 11.1% and 26% | 1.51% and 0.48% | – | – | – | – | – | – | – | – | – | – | – | –
> 10000 nM | C=CC(=O)N1CCN(c2nc(=O)n(-c3c(C)ccnc3C(C)C)c3nc(-c4c(O)cccc4F)c(F)cc23)C(C)C1 (centres undefined) | 91.5% and 117% | 95.7% and 105% | 121% and 122% | 131% and 149% | 174% and 201% | 161% and 180% | – | – | – | – | – | – | – | – | – | – | – | –
> 300 nM | C=CC(=O)Nc1cc(Nc2nccc(-c3cn(C)c4ccccc34)n2)c(OC)cc1N(C)CCN(C)C | – | – | – | – | – | – | 112% and 158% | 91.3% and 98.2% | 107% and 117% | 99.9% and 90.9% | 108% and 118% | 101% and 98.4% | – | – | – | – | – | –
< 31.6 nM | CC(=O)O[C@H]1C(=O)[C@@]2(C)[C@H]([C@H](OC(=O)c3ccccc3)[C@]3(O)C[C@H](OC(=O)[C@H](O)[C@@H](NC(=O)c4ccccc4)c4ccccc4)C(C)=C1C3(C)C)[C@]1(OC(C)=O)CO[C@@H]1C[C@@H]2O | 7.73% and 9% | 9.43% and 8.68% | 9.33% and 9.1% | 8.48% and 7.37% | 8.93% and 7.1% | 9.93% and 9.02% | – | – | – | – | – | – | – | – | – | – | – | –
< 0.949 nM | CC(C)CC(NC(=O)C(Cc1ccccc1)NC(=O)c1cnccn1)B(O)O (centres undefined) | – | – | – | – | – | – | 2.8% and 2.47% | 0.77% and 0.18% | 0.19% and 0.16% | 0.36% and 0.17% | 0.46% and 0.15% | 0.24% and 0.15% | – | – | – | – | – | –
> 10000 nM | CC(CO)NC(=O)c1cc(-c2ccc(Cl)cc2)nn(-c2cnn(C)c2)c1=O (centres undefined) | 92.5% and 94.5% | 89.1% and 85.5% | 94.6% and 92.7% | 93.5% and 99.6% | 110% and 99.5% | 82.2% and 94% | – | – | – | – | – | – | – | – | – | – | – | –
294 nM and 249 nM | CC(Nc1ccc2c(c1)OCCn1cc(N3C(=O)OCC3C(F)F)nc1-2)C(N)=O (centres undefined) | 94.9% and 74% | 71% and 67.6% | 50.9% and 45.7% | 28.4% and 20.6% | 21.2% and 20.3% | 16.1% and 11.5% | – | – | – | – | – | – | – | – | – | – | – | –
6140 nM and 6390 nM | CC1(C)CCC(CN2CCN(c3ccc(C(=O)NS(=O)(=O)c4ccc(NCC5CCOCC5)c([N+](=O)[O-])c4)c(Oc4cnc5[nH]ccc5c4)c3)CC2)=C(c2ccc(Cl)cc2)C1 | 107% and 106% | 90.2% and 119% | 117% and 124% | 103% and 118% | 159% and 150% | 1.83% and 3.19% | – | – | – | – | – | – | – | – | – | – | – | –
2260 nM and 2160 nM | CC1COCCN1c1cc(C2(S(C)(=N)=O)CC2)nc(-c2ccnc3[nH]ccc23)n1 (centres undefined) | 127% and 114% | 108% and 101% | 115% and 113% | 93.2% and 103% | 32.1% and 23.6% | 11.2% and 8.31% | – | – | – | – | – | – | – | – | – | – | – | –
5930 nM and 6040 nM | CCCS(=O)(=O)Nc1ccc(F)c(C(=O)c2c[nH]c3ncc(-c4ccc(Cl)cc4)cc23)c1F | 101% and 114% | 98.5% and 97.8% | 112% and 118% | 107% and 111% | 109% and 119% | 3.67% and 1.89% | – | – | – | – | – | – | – | – | – | – | – | –
> 1000 nM and 778 nM | CCN1CCN(Cc2ccc(Nc3ncc(F)c(-c4cc(F)c5nc(C)n(C(C)C)c5c4)n3)nc2)CC1 | 79.4% and 92.5% | 55.2% and 50% | 50.4% and 57.6% | 62.8% and 49.6% | – | – | – | – | – | – | – | – | 99.2% and 123% | 85.2% and 96.2% | – | – | – | –
6.21 nM and 6.32 nM | CCc1c2c(nc3ccc(O)cc13)-c1cc3c(c(=O)n1C2)COC(=O)[C@]3(O)CC | 15.4% and 10.1% | 5.45% and 6.24% | 3.48% and 3.36% | 1.87% and 2.42% | – | – | – | – | – | – | – | – | 94.3% and 93.4% | 16.8% and 20.4% | – | – | – | –
6060 nM and 8070 nM | COC1C=CCC(C)C(C)S(=O)(=O)NC(=O)c2ccc3c(c2)N(CC2CCC21)CC1(CCCc2cc(Cl)ccc21)CO3 (centres undefined) | 96% and 134% | 105% and 90.2% | 111% and 128% | 103% and 137% | 119% and 191% | 6.05% and 30.3% | – | – | – | – | – | – | – | – | – | – | – | –
14.1 nM and 12.1 nM | COc1c(OCCCN2CCOCC2)ccc2c3n(c(=NC(=O)c4cnc(N)nc4)nc12)CCN3 | 35.4% and 31.9% | 12.5% and 11% | 4.09% and 3.82% | 2.57% and 1.98% | – | – | – | – | – | – | – | – | 86% and 84.6% | 55.7% and 52.6% | – | – | – | –
< 31.6 nM | COc1cccc2c1C(=O)c1c(O)c3c(c(O)c1C2=O)CC(O)(C(=O)CO)CC3OC1CC(N)C(O)C(C)O1 (centres undefined) | 15.1% and 13.7% | 2.91% and 1.62% | 1.09% and 1.08% | 1.18% and 0.23% | 0.29% and 0.47% | 0.19% and 0.46% | – | – | – | – | – | – | – | – | – | – | – | –
> 100 nM | Cn1ncnc1[C@H]1c2n[nH]c(=O)c3cc(F)cc(c23)N[C@@H]1c1ccc(F)cc1 | 121% and 158% | 110% and 141% | – | – | – | – | – | – | – | – | – | – | 110% and 130% | 113% and 102% | 105% and 134% | 97.5% and 96.9% | – | –
71.7 nM and 72.3 nM | NC(=O)C(=Cn1cnc(-c2cc(C(F)(F)F)cc(C(F)(F)F)c2)n1)c1cncnc1 | – | – | – | – | – | – | – | – | 133% and 162% | 110% and 130% | 30.4% and 25.3% | 11.7% and 9.71% | – | – | – | – | 10.5% and 7.35% | 4.97% and 5%
1360 nM and 1140 nM | Nc1ccccc1NC(=O)c1ccc(CNC(=O)OCc2cccnc2)cc1 | 81.5% and 97.5% | 72.8% and 73.2% | 75.6% and 75% | 60.6% and 54.4% | 21.2% and 28.1% | 2.46% and 1.54% | – | – | – | – | – | – | – | – | – | – | – | –
< 31.6 nM | Nc1ccn(C2OC(CO)C(O)C2(F)F)c(=O)n1 (centres undefined) | 26.9% and 25.7% | 16.5% and 10.8% | 17.8% and 15.2% | 15.7% and 11.5% | 11.1% and 9.45% | 7.67% and 6.64% | – | – | – | – | – | – | – | – | – | – | – | –
> 10000 nM | O=C(c1cc(Cc2n[nH]c(=O)c3ccccc23)ccc1F)N1CCN(C(=O)C2CC2)CC1 | 118% and 121% | 91.3% and 115% | 110% and 104% | 112% and 120% | 119% and 130% | 101% and 138% | – | – | – | – | – | – | – | – | – | – | – | –
2690 nM and 6240 nM | O=c1[nH]cc(F)c(=O)[nH]1 | 109% and 162% | 103% and 123% | 86.9% and 104% | 60.5% and 74.4% | 51.7% and 56% | 40% and 45.8% | – | – | – | – | – | – | – | – | – | – | – | –
